Molecules are shown by their SMILES.

This series in a line: gradient 5% acetonitrile 3 min, to 50% in 2 min, to 85% in 15 min, held 3 min, 100 µL/min. As to conditions: column: Zorbax Extend-C18 2.1 x 50 mm; eluents: water / acetonitrile, 0.1% formic acid. The method in brief:
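A Zorbax Extend-C18 column (2.1 × 50 mm, 1.8 μm) run at 100 μL/min with water and acetonitrile, both containing 0.1% formic acid, separated mixtures of ~100 pure standards. The HPLC was coupled to a quadrupole time-of-flight mass spectrometer operated in positive and negative ionization mode, with dead and dwell volumes of 40 μL and 900 μL. Each retention time was taken from a computationally picked adduct peak that was then manually inspected.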
Regarding `Cc1cc(C)n(CC(=O)NCCc2c[nH]c3ccccc23)c(=O)n1`, the RP-LC retention time is 570 s.

Take `CS(=O)(=O)N1CCCc2cc(C(=O)NCc3ccc4c(c3)OCO4)ccc21`: the RP-LC retention time was 779 s.

In turn, `Cc1cnc(CC2CCN(C(=O)C(C)C)C2)n1C(C)C` (centres undefined) registered an RP-LC retention time of 578 s.

Compound `COc1ccc(-c2coc3cc(OC(=O)c4ccc5c(c4)OCO5)ccc3c2=O)cc1OC` gave an RP-LC retention time of 981 s.

`CCOc1ccccc1NC(=O)COc1nc(CC)nc2ccccc12` had an RP-LC retention time of 884 s.

Compound `Cc1ccc(C)c(NC(=O)C2CCN(S(=O)(=O)c3cc(-c4noc(C)n4)cs3)CC2)c1` returned an RP-LC retention time of 953 s.

Compound `CC(C)Cn1cc(CCNS(=O)(=O)c2ccc(Cl)cc2)c2cccnc21` yielded an RP-LC retention time of 993 s.

`Cc1ccc(C(=O)NCCN2CCCC2)cc1NC(=O)C1=CSCCO1` yielded an RP-LC retention time of 592 s.

The compound `Cc1nc(N2CCN(c3ccccn3)CC2)nc2c1C(=O)CC(C)C2` (centres undefined) returned an RP-LC retention time of 652 s.

Compound `CCc1ccc(S(=O)(=O)N2C[C@@H](F)C[C@H]2C(=O)N2CCOCC2)cc1` yielded an RP-LC retention time of 745 s.

With `CCc1noc(NC(C)=O)c1-c1ccc(OC)c(S(=O)(=O)Nc2ccc(F)cc2F)c1`, the RP-LC retention time turned out to be 794 s.

`Cc1ccc(CNC(=O)c2cccc(-c3nc4cccnc4n3C)c2)o1` returned an RP-LC retention time of 722 s.

Compound `O=S(=O)(c1ccc(C(F)(F)F)cc1)N1CCCC(Cn2cnc3cccnc32)C1` (centres undefined) displayed an RP-LC retention time of 831 s.

For `CCOc1nccnc1N1CCC(NC(=O)Cc2cccnc2)C1` (centres undefined), the RP-LC retention time amounted to 534 s.

`CC1CSc2ccc(S(=O)(=O)N3CCN(c4ccccn4)CC3)cc2NC1=O` (centres undefined): the RP-LC retention time came out at 647 s.

`Fc1cccc(-c2noc(-c3ccc(N4CCN(c5ccccn5)CC4)nc3)n2)c1`: the RP-LC retention time is 799 s.

Compound `COc1ncc(C(=O)Nc2ccc(Cl)cc2)c(C)n1` registered an RP-LC retention time of 786 s.

In turn, `CCNC(=O)Nc1ccc2c(c1)CN(S(=O)(=O)c1cn(C)cn1)CCO2` gave an RP-LC retention time of 625 s.

As for `O=C(NCCc1ccccc1)Nc1nccn(-c2ccc3c(c2)CCC3)c1=O`, the RP-LC retention time was 1060 s.

Compound `O=C(C1CCN(c2nc3ccc(-c4cccc(F)c4)nc3s2)CC1)N1CCCCC1` displayed an RP-LC retention time of 1070 s.

For the compound `CC(C)c1noc(-c2cc(=O)n(CC(=O)Nc3ccc4c(c3)OCCO4)c3ccccc23)n1`, the RP-LC retention time was found to be 941 s.

For the compound `CN(C)c1cccc(C(=O)N2CCN(S(=O)(=O)C3CC3)CC2)c1`, the RP-LC retention time came out at 630 s.

Compound `O=C(NC1CCSC1=O)c1ccc(-n2cccn2)nn1` (centres undefined) had an RP-LC retention time of 657 s.

With `CN(CCc1noc(C2CN(C(=O)c3ccsc3)C2)n1)C(=O)C1CC1`, the RP-LC retention time amounted to 647 s.

Compound `Cc1ccc(CN2CCN(CC(=O)N3CCC4(CC3)OCCO4)C(=O)C2=O)cc1` showed an RP-LC retention time of 653 s.

With `CC(C)c1cc(C(=O)NC2CCCCCC2)n[nH]1`, the RP-LC retention time is 836 s.

In turn, `COc1nn(C)cc1C(=O)N1CCC(C(=O)NCc2cccs2)CC1` displayed an RP-LC retention time of 613 s.

`COc1cccc(-c2csc(CN3CCNCC3)n2)c1` showed an RP-LC retention time of 566 s.

As to `Cc1ccc(-n2ncc3c(NCc4ccc5c(c4)OCO5)ncnc32)cc1`, the RP-LC retention time was determined as 939 s.

With `CN(C)C(=O)c1cc2cccc3c2n1CCS3`, the RP-LC retention time was found to be 816 s.

Regarding `O=C(Nc1cccc(F)c1)Nc1cccc(-c2ccc(N3CCOCC3)nn2)c1`, the RP-LC retention time stood at 697 s.

As for `O=C(NCC1CCCO1)NC1CCN(c2nc3cccnc3n(Cc3ccccc3)c2=O)CC1` (centres undefined), the RP-LC retention time turned out to be 859 s.

On to `O=S(=O)(NCCOc1ccccc1)c1ccccc1Cl`, for which the RP-LC retention time came out at 869 s.

In turn, `CN1C(=O)c2cc(C(=O)NCc3ccc(F)cc3)nn2CC1(C)C(=O)NC1CCCCCC1` (centres undefined) registered an RP-LC retention time of 840 s.

The values are drawn from the METLIN SMRT retention time set (Domingo-Almenara et al. 2019).
